In patent US20200289521A1, “USE OF VITAMIN K IN COMBINATION WITH ANTICOAGULANTS” (KAYDENCE PHARMA AS, priority 2019, published 2020):

Key:
[1] = system: whole-blood thrombogenicity; assay: T-TAS Total Thrombus-formation Analysis of whole blood from treated TGR rats; assay type: in vivo, transgenic Ren-2 rats [TGR(mREN-2)27]
Protocol: (§1) This experiment was conducted in order to evaluate the effects of vitamin K2 (MK-7) on the anticoagulant activity of the new oral anticoagulants (NOAC) rivaroxaban and dabigatran using the T-TAS Total Thrombus-formation Analysis System. The T-TAS Total Thrombus-formation Analysis System is a microchip-based flow chamber system capable of evaluating whole-blood thrombogenicity. It is a useful tool in monitoring the efficacy of anticoagulants on thrombus formation and predicting the risk of bleeding complications. To perform the study, 45 wild-type male Sprague-Dawley and 45 transgenic male Ren-2 rats [TGR(mREN-2)27] at the age of 10-11 weeks at the beginning of the treatment period were purchased from animal facility IKEM-CEM Institute of Clinical and Experimental Medicine (Prague, Czech Republic). All animals in the experiment were housed in individually ventilated cages (2-3 rats per cage) and kept in the animal rooms of JCET at a relative humidity of 55±10%, a temperature of 22±2° C., and a light cycle of 7 AM to 7 PM. The rats had free access to food and water. After delivery, animals were randomly divided into 10 experimental groups (5 or 10 rats per group), as indicated below in Table 1. Four days before the start of the treatment, the first part of animals' body weight and food intake was measured in selected representative three cages (rats n=9) to calculate the appropriate amount of tested compounds required for addition to the diet to obtain the dosing indicated in Table 1. It was estimated that food intake was approximately 30 g of chow per rat per day. The animals were fed for two weeks with AIN-93G diet supplemented with rivaroxaban or dabigatran with/without Vitamin K2 (MK-7), as indicated in Table 1. The animals were then anesthetized in order to draw blood samples for further analysis. The body mass of the rats was measured at the beginning and at the end of treatment. At the beginning and at the end of treatment, the food intake per day was measured in representative group of animals to monitor the daily dosing of tested compounds (per kg of body mass). The thrombus formation in vitro was measured in whole blood using a microchip-based flow chamber system according to manufacturers' protocol (Total Thrombus-formation Analyser System, T-TAS; Fujimori Kogyo Co., Ltd., Tokyo, Japan). For the analysis, citrated whole blood (480 μl) was mixed with 20 μl of 300 mM CaCl2 solution containing 1.25 mg/ml CTI (Corn Trypsin Inhibitor). […] The obtained flow pressure pattern for each sample was used to analyze thrombus formation based on the following estimated parameters: […]

VSMCs [2] = assay: ATP increase in VSMCs, 48 hours, with CoCl2 arm (luminescence); assay type: cell-based
Protocol: This study was performed to further investigate the origin of ATP production that is influenced by vitamin K2 (MK-7). To perform this study, VSCMs (5000 cells/well) were plated in 96-well plates and left to adhere overnight. Next, cells were incubated for 48 hours with either vehicle, CoCl2 (100 μM), vitamin K2 (MK-7) (10 μM), or UQ10 (10 μM). Hoechst was added to correct for cell number (1 μg/mL). Next, ATP was measured using mammalian lysis buffer for 5 minutes, after which 50 μL ATP substrate solution was added to the wells and incubated for 10 minutes in a dark environment. Finally, medium was transferred to a white plate to measure luminescence.

[3] = system: human vascular smooth muscle cells (hVSMCs); assay: ATP measurement in hVSMCs with warfarin and/or vitamin K2 (luminescence); assay type: cell-based; settings: 24 hours
Protocol: This study was performed in order to determine the effect of vitamin K2 (MK-7) on warfarin-induced oxidative stress in muscles. To perform this study, human vascular smooth muscle cells (hVSMCs; 5,000 cells/well) were plated in 96-well dark plates and left to adhere overnight. Next, cells were incubated for 24 hours with either vehicle only (as blank control), warfarin (10 or 50 μM), vitamin K2 (MK-7) (10 μM), or a combination of warfarin (50 μM) and vitamin K2 (MK-7) (10 μM). Hoechst was added to correct for cell number (1 μg/mL). Next, ATP was measured using mammalian lysis buffer for 5 minutes after which 50 μL ATP substrate solution was added to the wells and incubated for 10 minutes in a dark environment. Finally, medium was transferred to a white plate to measure luminescence.

[4] = system: whole-blood thrombogenicity; assay: T-TAS Total Thrombus-formation Analysis of whole blood from treated Sprague-Dawley rats; assay type: in vivo
Protocol: as §1

VSMCs [5] = assay: Hypoxia (CoCl2) induced oxidative stress in VSMCs (DCFDA); assay type: cell-based; settings: 50 μM CoCl2 for 19 hours; test substance 10 μM; 6 hours
Protocol: This study was performed to determine whether intracellular oxidative stress in VSCMs is derived from mitochondrial dysfunction. To perform this study, VSMCs were incubated with cobalt chloride, a known stabilizer of HIF1a. Cobalt chloride binding to HIF1a prevents the degradation of HIF1a and thus results in a cellular hypoxia state. HIF1a has been implicated in cancer biology as well as a number of other pathophysiologies, specifically in areas of vascularization and angiogenesis, energy metabolism, cell survival, and tumor invasion. Under normal circumstances, after injury, HIF1a is degraded by the enzyme prolyl hydroxylase (PHD). The continued up-regulation of HIF1a (mimicked by cobalt chloride) promotes tumor growth and metastasis through its role in initiating angiogenesis and regulating cellular metabolism to overcome hypoxia. Hypoxia promotes apoptosis in both normal and tumor cells. Additionally, hypoxia generates significant intracellular oxidative stress.
To perform the study, VSMCs (10,000 cells/well) were plated in a 96-well plate and left to adhere overnight. Next, the medium was changed to a medium supplemented with 50 μM CoCl2 for 19 hours. The next day, cells were washed and incubated for 1 hour with 20 μM DCFDA in the presence of a vehicle (solvent for CoCl2 and vitamin K2 (MK-7)/UQ10), 10 μM vitamin K2 (MK-7), or 10 μM UQ10 in medium. The medium was then changed to a medium supplemented with vehicle, vitamin K2 (MK-7)/UQ10, or CoCl2, and fluorescent was measured for 6 hours. Fluorescence intensity was normalized for cell count.

## CC(C)=CCC/C(C)=C/CC/C(C)=C/CC/C(C)=C/CC/C(C)=C/CC/C(C)=C/CC/C(C)=C/CC1=C(C)C(=O)c2ccccc2C1=O [vitamin K2 (MK-7)]
[1]
  effect of vitamin K2 (MK-7) on inhibition of thrombus formation by dabigatran and rivaroxaban: did not modify this effect significantly
VSMCs [2]; 10 μM vs CoCl2 100 μM
  ATP levels compared to CoCl2: significant higher ATP levels
VSMCs [2]; CoCl2 100 μM, vitamin K2 (MK-7) 10 μM
  ATP production compared to vehicle: increased ATP production slightly, though significant
[3]; warfarin 10 or 50 μM, vitamin K2 (MK-7) 10 μM
  cell ATP / ATP generation: increased cell ATP
[3]; warfarin 50 μM + vitamin K2 (MK-7) 10 μM
  oxidative stress induced by warfarin: counteracted the oxidative stress induced by warfarin
[4]; added to dabigatran and to rivaroxaban
  increase of occlusion Time (OT) by addition of vitamin K2 (MK-7): 5-7%
[4]; vitamin K2 (MK-7) added to dabigatran or rivaroxaban
  formation of a clot (AUC): did not prevent the formation of a clot
VSMCs [5]
  hypoxia induced oxidative stress: seems to counteract hypoxia induced oxidative stress
